Results: patent EP2816108A1, “Transformed fungus with vitamin K dependent activity” (priority 2013, dated 2014)

Experiments:
[1] = test system: Aspergillus nidulans strain YR 23.5; assay: Vitamin K uptake in liquid cultures, viable versus heat-inactivated mycelium; format: cell-based; settings: for Uptake (vitamin K / DW): active minus inactive
Method: Solid Media. Minimal media plates including vitamin K (vitamin K1, Fluka, 99%) were prepared. On top of the agar medium, sterile cellophane was placed to inhibit direct contact between the media and fungal cells. Spores of strain YR23.5 were plated in a concentration of ca. 10E+5 per plate. After 3 days of growth, harvesting was done by scraping off the mycelium from cellophane. Then the mycelium was frozen and pulverized in liquid nitrogen. The powder was subsequently lyophilised and sent for vitamin K analysis to LUFA-ITL (Landwirtschaftliche Untersuchungs- und Forschungsanstalt Institut für Tiergesundheit u Lebensmittelqualität GmbH, Kiel, Germany). Liquid media. The strain YR23.5 was pre-cultivated for 48 hours in 2 x 250 ml of liquid minimal media at 37°C, 180 rpm in Erlenmeyer flasks. Mycelium was harvested by filtration, washed and re-suspended in sterile minimal medium and separated into four equal aliquots of roughly 250 mg wet weight (corresponding to roughly 50 mg dry weight). Culture volume was set to 30 ml. Two of these cultures received different vitamin K amounts, final concentration: 0.5 mg/mL and 0.05 mg/mL vitamin K (Konakion, micelles suspension, Roche, 10 mg/mL) and were grown for further 8 hours. Mock controls were grown in parallel for 8 hours without receiving vitamin K. After the growth phase the fungal cells were inactivated by boiling in the microwave oven (3 x 5 min at max. energy level), and subsequently vitamin K was added to the mock controls (final concentration, 0.5 and 0.05 mg/mL vitamin K). The inactivated cultures were further incubated in the rotary shaker for 30 minutes. All cultures were harvested at the same time point. Harvested biomass was washed, frozen and ground in liquid nitrogen, lyophilised and sent for analysis to LUFA-ITL (Landwirtschaftliche Untersuchungs- und Forschungsanstalt Institut für Tiergesundheit u Lebensmittelqualität GmbH, Kiel, Germany).
The vitamin uptake ability of A.nidulans was studied with growth tests in Petri dishes. In addition, vit.K uptake and unspecific resorption of vit.K to the fungal cell wall was analyzed in liquid cultures. According to growth tests in Petri dishes, 752 µg of vitamin K was quantified in 100 mg DW (dry weight) of lyophilized fungal mycelium. However, due to the set-up of this experiment it remains unclear if the vitamin K is either attached to the cell wall or actively taken up into the fungal cell. To clarify this, a second growth test comparing viable and heat-inactivated mycelium was performed. […] The maximal amount of vit.K unspecifically attached to the cell wall is approximately 20 µg per 100 mg (dry weight) of fungal mycelium. The majority of vitamin K was found in viable cells. The viable mycelium was able to take up approximately 8% of the vitamin K supplied through the culture medium (Hill et al.), more precisely 1,14 mg / 100 mg mycelium from the […] vit.K supplied in total (Table 2). Table 2: Vitamin K1 updake ability of Aspergillus nidulans strain YR 23.5. Vitamin K was added to liquid cultures, the final concentration as indicated. Fungal mycelium was inactivated by boiling in a microwave oven. Values which were obtained with inactivated fungal cell mass indicate the unspecific association of vitamin K to the fungal mycelium.

[2] = test system: Aspergillus nidulans strain YR23.5; assay: Vitamin K growth test on solid media (Petri dishes), vitamin K quantified in lyophilised mycelium; format: cell-based; settings: in 100 mg DW (dry weight) of lyophilized fungal mycelium; growth tests in Petri dishes, 3 days
Method: Solid Media. Minimal media plates including vitamin K (vitamin K1, Fluka, 99%) were prepared. On top of the agar medium, sterile cellophane was placed to inhibit direct contact between the media and fungal cells. Spores of strain YR23.5 were plated in a concentration of ca. 10E+5 per plate. After 3 days of growth, harvesting was done by scraping off the mycelium from cellophane. Then the mycelium was frozen and pulverized in liquid nitrogen. The powder was subsequently lyophilised and sent for vitamin K analysis to LUFA-ITL (Landwirtschaftliche Untersuchungs- und Forschungsanstalt Institut für Tiergesundheit u Lebensmittelqualität GmbH, Kiel, Germany). Liquid media. The strain YR23.5 was pre-cultivated for 48 hours in 2 x 250 ml of liquid minimal media at 37°C, 180 rpm in Erlenmeyer flasks. Mycelium was harvested by filtration, washed and re-suspended in sterile minimal medium and separated into four equal aliquots of roughly 250 mg wet weight (corresponding to roughly 50 mg dry weight). Culture volume was set to 30 ml. […]
The vitamin uptake ability of A.nidulans was studied with growth tests in Petri dishes. In addition, vit.K uptake and unspecific resorption of vit.K to the fungal cell wall was analyzed in liquid cultures. According to growth tests in Petri dishes, 752 µg of vitamin K was quantified in 100 mg DW (dry weight) of lyophilized fungal mycelium. […]

CC1=C(C/C=C(\C)CCC[C@H](C)CCC[C@H](C)CCCC(C)C)C(=O)c2ccccc2C1=O [vitamin K, vitamin K1]
Uptake (vitamin K / DW) ([1]; fungal cell mass active, vitamin K added 50 µg/ml): 169,1 µg/100 mg
Absolute quantities (vitamin K / DW) ([1]; fungal cell mass active, vitamin K added 50 µg/ml, liquid culture, 8 hours): 183,0 µg/100 mg
Uptake (vitamin K / DW) ([1]; fungal cell mass active, vitamin K added 500 µg/ml): 1122,1 µg/100 mg
Absolute quantities (vitamin K / DW) ([1]; fungal cell mass active, vitamin K added 500 µg/ml, liquid culture, 8 hours, DW = fungal mycelium (dry weight)): 1140,0 µg/100 mg
Absolute quantities (vitamin K / DW) ([1]; fungal cell mass inactive (boiled in microwave oven), vitamin K added 50 µg/ml, unspecific association with mycelium): 13,9 µg/100 mg
Absolute quantities (vitamin K / DW) ([1]; fungal cell mass inactive (boiled in microwave oven), vitamin K added 500 µg/ml, unspecific association with mycelium): 17,9 µg/100 mg
maximal amount of vit.K unspecifically attached to the cell wall ([1]; per 100 mg (dry weight) of fungal mycelium, inactivated cultures): approximately 20 µg per 100 mg
vitamin K taken up of the vitamin K supplied through the culture medium ([1]; viable mycelium): approximately 8%
vitamin K taken up by viable mycelium ([1]; viable mycelium, from the 50 mg vit.K supplied in total): 1,14 mg / 100 mg mycelium
vitamin K quantified in lyophilized fungal mycelium [2]: 752 µg
